Consider 17 compounds from patent US6372777B1, “Cyclic AMP-specific phosphodiesterase inhibitors” (ICOS Corporation, priority 1999, dated 2002).

This test addresses T1, human recombinant PDE4 (Homo sapiens, UniProt Q07343).
T1 construct: made in house; host or cells: Saccharomyces cerevisiae BJ2-54 (strain YI23 harboring HDUN2.32, if PDE4B)
Nature of the test: Inhibition of human recombinant PDE4 (IC50). The test is classed as biochemical.

Molecules are shown by their SMILES.

T1 sequence (Q07343 1-564 isoform Q07343-2): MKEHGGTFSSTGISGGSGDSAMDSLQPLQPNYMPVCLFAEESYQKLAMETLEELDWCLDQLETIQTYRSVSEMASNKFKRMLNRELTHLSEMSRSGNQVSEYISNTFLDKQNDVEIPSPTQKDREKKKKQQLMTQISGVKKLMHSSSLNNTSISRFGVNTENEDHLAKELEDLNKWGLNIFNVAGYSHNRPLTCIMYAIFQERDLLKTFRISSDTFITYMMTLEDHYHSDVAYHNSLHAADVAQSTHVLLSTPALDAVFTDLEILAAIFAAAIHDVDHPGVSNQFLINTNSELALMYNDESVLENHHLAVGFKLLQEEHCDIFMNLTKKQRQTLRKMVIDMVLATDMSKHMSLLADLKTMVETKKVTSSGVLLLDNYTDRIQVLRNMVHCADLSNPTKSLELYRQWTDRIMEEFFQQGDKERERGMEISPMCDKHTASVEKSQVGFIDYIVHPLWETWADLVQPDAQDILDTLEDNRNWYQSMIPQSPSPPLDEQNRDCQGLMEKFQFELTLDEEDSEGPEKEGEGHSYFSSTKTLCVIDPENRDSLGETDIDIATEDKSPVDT

A word on the IC50: it is the concentration needed to halve the response being measured. Consider `CCOC(=O)c1cc(-c2ccccc2)n(-c2cccc(N(C)C)c2)c1C` [Example 1, 1-(3-Dimethylaminophenyl)-2-methyl-5-phenyl-1H-pyrrole-3-carboxylic acid ethyl ester], for which the IC50 stood at 8.22 µM. For `CCOC(=O)c1cc(C)n(-c2cccc(Cl)c2)c1-c1ccccc1` [Example 2, 1-(3-Chlorophenyl)-5-methyl-2-phenyl-1H-pyrrole-3-carboxylic acid ethyl ester] the value was 5.45 µM; for `CCOC(=O)c1cc(C)n(-c2cccc(C)c2)c1-c1ccccc1` [Example 4, 5-Methyl-2-phenyl-1-m-tolyl-1H-pyrrole-3-carboxylic acid ethyl ester], 2.9 µM. The value for `CCOC(=O)c1cc(-c2ccccc2)n(-c2cccc(C)c2)c1C` [Example 5, 2-Methyl-5-phenyl-l-m-tolyl-1H-pyrrole-3-carboxylic acid ethyl ester] was 6.1 µM; that for `CCOC(=O)c1cc(C)n(-c2cccc(Br)c2)c1-c1ccccc1` [Example 6, 1-(3-Bromophenyl)-5-methyl-2-phenyl-1H-pyrrole-3-carboxylic acid ethyl ester] was 8.55 µM; that for `CCOC(=O)c1cc(C)n(-c2cccc(C(C)=O)c2)c1-c1ccccc1` [Example 7, 1-(3-Acetylphenyl)-5-methyl-2-phenyl-1H-pyrrole-3-carboxylic acid ethyl ester] was 6.83 µM. For `CCOC(=O)c1cc(-c2ccccc2)n(-c2cccc(C(C)=O)c2)c1C` [Example 8, 1-(3-Acetylphenyl)-2-methyl-5-phenyl-1H-pyrrole-3-carboxylic acid ethyl ester] the value was 0.59 µM; for `CCOC(=O)c1cc(C)n(-c2cccc(S(C)(=O)=O)c2)c1-c1ccccc1` [Example 9, 1-(3-Methanesulfonylphenyl)-5-methyl-2-phenyl-1H-pyrrole-3-carboxylic acid ethyl ester], 4.58 µM.

For the compound `CCOC(=O)c1cc(-c2ccccc2)n(-c2cccc(S(C)(=O)=O)c2)c1C` [Example 10, 1-(3-Methanesulfonylphenyl)-2-methyl-5-phenyl-1H-pyrrole-3-carboxylic acid ethyl ester], the IC50 worked out at 4.38 µM. In the case of `CCOC(=O)c1cc(-c2ccccc2)n(-c2cccc(C(N)=O)c2)c1C` [Example 11, 1-(3-Carbamoylphenyl)-2-methyl-5-phenyl-1H-pyrrole-3-carboxylic acid ethyl ester], the half-inhibitory concentration (IC50) amounted to 5.45 µM. The value for `CCOC(=O)c1cc(C)n(-c2cccc(C(N)=O)c2)c1-c1ccccc1` [Example 12, 1-(3-Carbamoylphenyl)-5-methyl-2-phenyl-1H-pyrrole-3-carboxylic acid ethyl ester] was 0.22 µM; that for `CCOC(=O)c1cc(C)n(-c2cccc(N(C)C)c2)c1-c1ccccc1` [Example 13, 1-(3-Dimethylaminophenyl)-5-methyl-2-phenyl-1H-pyrrole-3-carboxylic acid ethyl ester] was 0.15 µM; that for `CCOC(=O)c1cc(C)n(-c2cccc(F)c2)c1-c1ccccc1` [Example 17, 1-(3-Fluorophenyl)-5-methyl-2-phenyl-1H-pyrrole-3-carboxylic acid ethyl ester] was 13.2 µM. The value for `CCOC(=O)c1cc(-c2ccccc2)n(-c2cccc(F)c2)c1C` [Example 18, 1-(3-Fluorophenyl)-2-methyl-5-phenyl-1H-pyrrole-3-carboxylic acid ethyl ester] was 0.62 µM; that for `CCOC(=O)c1cc(-c2ccccc2)n(-c2cccnc2)c1C` [Example 19, 2-Methyl-5-phenyl-1-pyridin-3-yl-1H-pyrrole-3-carboxylic acid ethyl ester] was 1.28 µM; that for `CCOC(=O)c1cc(-c2ccccc2)n(C2CCCCC2)c1C` [Example 20, 1-Cyclohexyl-2-methyl-5-phenyl-1H-pyrrole-3-carboxylic acid ethyl ester] was 0.99 µM. The value for `CCOC(=O)c1cc(C)n(-c2ccc([N+](=O)[O-])cn2)c1-c1ccccc1` [Example 23, 5-Methyl-1-(5-nitropyridin-2-yl)-2-phenyl-1H-pyrrole-3-carboxylic acid ethyl ester] was 133 µM.
